Data as given in the supplement of paper PMC10307832.

Legend:
Assay in all cases: relative viability (nuclei count vs DMSO), 5 days (fraction); higher = more cells survive
[1] = compound: C1/C(=C\C2=CC=CS2)/C(=O)/C(=C/C3=CC=CS3)/C1 + O=C(c1cc(Cc2n[nH]c(=O)c3ccccc23)ccc1F)N1CCN(C(=O)C2CC2)CC1 [Olaparib] (partner 8 µM)
Method in brief: (§1)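 Each reported value is a median over duplicate plates. It expresses relative viability: treated-well nuclei count divided by vehicle-well nuclei count. Lung cancer cell lines in 1536-well plates were dosed by pin tool a day after seeding, alone with one drug or with a fixed anchor-drug dose plus five library-drug doses (not always all listed) in √10 steps, and nuclei were counted after 5 days.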

TPCA-1 + Palbociclib = compound: C1=CC(=CC=C1C2=CC(=C(S2)NC(=O)N)C(=O)N)F [TPCA-1] + CC(=O)c1c(C)c2cnc(Nc3ccc(N4CCNCC4)cn3)nc2n(C2CCCC2)c1=O [Palbociclib] (partner 0.5 µM)
Method in brief: as §1

TPCA-1 + Foretinib = compound: C1=CC(=CC=C1C2=CC(=C(S2)NC(=O)N)C(=O)N)F [TPCA-1] + COc1cc2c(Oc3ccc(NC(=O)C4(C(=O)Nc5ccc(F)cc5)CC4)cc3F)ccnc2cc1OCCCN1CCOCC1 [Foretinib] (partner 0.25 µM)
Method in brief: as §1

[2] = compound: C[C@]12O[C@H](C[C@]1(O)CO)n1c3ccccc3c3c4c(c5c6ccccc6n2c5c31)CNC4=O [Lestaurtinib] + Nc1ncn([C@H]2C[C@H](O)[C@@H](CO)O2)c(=O)n1 [Decitabine] (partner 2 µM)
Method in brief: as §1

Cell Line	relative viability ([1]; first compound 0.2 µM)	relative viability ([1]; first compound 0.6325 µM)	relative viability ([1]; first compound 2 µM)	relative viability ([1]; first compound 6.325 µM)	relative viability ([1]; first compound 20 µM)	relative viability (TPCA-1 + Palbociclib; first compound 0.04 µM)	relative viability (TPCA-1 + Palbociclib; first compound 0.1265 µM)	relative viability (TPCA-1 + Palbociclib; first compound 0.4 µM)	relative viability (TPCA-1 + Palbociclib; first compound 1.265 µM)	relative viability (TPCA-1 + Palbociclib; first compound 4 µM)	relative viability (TPCA-1 + Foretinib; first compound 0.04 µM)	relative viability (TPCA-1 + Foretinib; first compound 0.4 µM)	relative viability (TPCA-1 + Foretinib; first compound 1.265 µM)	relative viability (TPCA-1 + Foretinib; first compound 4 µM)	relative viability ([2]; first compound 0.005 µM)	relative viability ([2]; first compound 0.01581 µM)	relative viability ([2]; first compound 0.05 µM)	relative viability ([2]; first compound 0.1581 µM)	relative viability ([2]; first compound 0.5 µM)	relative viability (TPCA-1 + Foretinib; first compound 0.1265 µM)
NCI-H2347	0.623	0.581	0.593	0.521	0.63	0.457	0.462	0.427	0.424	0.461	1.03	1.16	0.551	0.782	0.587	0.651	0.57	0.512	0.496	–
NCI-H2405	0.905	0.844	1.04	0.789	0.867	0.565	0.507	0.525	0.446	0.478	1.03	1.11	0.991	1.03	0.728	0.77	0.742	0.638	0.413	1.05
NCI-H3122	0.655	0.645	0.648	0.537	0.578	0.189	0.166	0.185	0.22	0.181	1.06	1.02	0.928	0.909	0.47	0.582	0.465	0.453	0.424	0.914
PC-3 [JPC-3]	–	1.22	1.09	0.762	1.19	0.516	0.538	0.514	0.537	0.285	1.03	0.968	0.984	1.02	0.814	0.829	0.915	0.816	0.733	1.08
PC-14	0.289	0.28	0.239	0.192	0.31	0.502	0.57	0.557	0.518	0.4	1.01	0.957	1.01	0.79	0.244	0.223	0.237	0.207	0.0672	0.916
RERF-LC-KJ	0.948	0.956	0.869	0.724	0.637	1.12	1.04	1.04	1.03	0.892	0.904	0.883	0.836	0.774	0.869	0.791	0.563	0.562	0.241	0.997
SK-LU-1	0.427	0.34	0.541	0.443	0.514	0.363	0.367	0.368	0.347	0.235	0.806	0.876	0.617	0.377	0.634	0.607	0.48	0.424	0.349	0.736
SK-MES-1	0.792	0.781	0.696	0.669	0.729	0.346	0.333	0.325	0.319	0.327	0.997	0.813	0.599	0.609	0.36	0.441	0.321	0.282	0.142	0.847
SW 900	0.752	0.839	0.87	0.882	0.99	–	–	0.676	0.566	0.537	0.894	0.841	0.958	0.789	0.405	0.372	0.451	0.624	0.541	0.71
SW 1573	0.394	0.455	0.556	0.435	0.248	0.429	0.396	0.396	0.395	0.407	0.6	1.03	0.964	0.866	0.562	0.601	0.45	0.352	0.103	0.811
